Legend:
[1] = target: T1, RocR (Pseudomonas aeruginosa, UniProt Q9HX69); assay: hydrolysis of tDGC-bound c-di-GMP to pGpG, gel filtration and mass spectrometry; assay type: biochemical; conditions: 25 mM Tris-HCl, 300 mM NaCl, 5% glycerol, 10 mM MgCl2, 2 h, room temperature
T1 construct: recombinant RocR phosphodiesterase, expressed and purified as in cited earlier work

[2] = target: T2, tDGC (GGDEF domain of TM1788) (Thermotoga maritima, UniProt Q9X2A8, R233A); assay: gel filtration; assay type: binding; conditions: I-site; co-purified ligand
T2 construct: gene TM_1788; GGDEF domain, residues 82-248 of 248, N-terminal His6 tag, pET28b (salt-bridge mutants in pET22b), E. coli BL21(DE3); dimer with c-di-GMP, monomer without nucleotide
T2 sequence (Q9X2A8 entry or part of it R233A): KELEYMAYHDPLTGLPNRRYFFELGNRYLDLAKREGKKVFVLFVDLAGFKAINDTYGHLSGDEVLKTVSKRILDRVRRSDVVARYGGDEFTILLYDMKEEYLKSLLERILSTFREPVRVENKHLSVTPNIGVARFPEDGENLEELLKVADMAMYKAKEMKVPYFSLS

[3] = target: T3, tDGC (GGDEF domain of TM1788) (Thermotoga maritima, UniProt Q9X2A8); assay: X-ray crystallography; assay type: binding; conditions: feedback-inhibitory I-site (158-RxxD-161, secondary R115); co-purified ligand; inactive dimer crystals pH 6.5 (2.27 Å), active-like dimer crystals pH 4.0 (1.9 Å)
T3 construct: gene TM_1788; GGDEF domain, residues 82-248 of 248, N-terminal His6 tag, pET28b (salt-bridge mutants in pET22b), E. coli BL21(DE3); dimer with c-di-GMP, monomer without nucleotide
T3 sequence (Q9X2A8 entry or part of it): as the sequence (Q9X2A8 entry or part of it R233A) above, with A152R counted along it

[4] = target: T3, tDGC (GGDEF domain of TM1788); assay: thermal unfolding by circular dichroism at […] nm; assay type: binding; conditions: 20 mM Tris-HCl pH 8.5, 250 mM NaCl, 5% glycerol, 10 mM MgCl2, 0.8 mg/ml; co-purified ligand at I-site
[5] = target: T4, tDGC (GGDEF domain of TM1788) (Thermotoga maritima, UniProt Q9X2A8, E196A); assay: gel filtration; assay type: binding; conditions: I-site; co-purified ligand
T4 construct: gene TM_1788; GGDEF domain, residues 82-248 of 248, N-terminal His6 tag, pET28b (salt-bridge mutants in pET22b), E. coli BL21(DE3); dimer with c-di-GMP, monomer without nucleotide
T4 sequence (Q9X2A8 entry or part of it E196A): as the sequence (Q9X2A8 entry or part of it R233A) above, with E115A, A152R counted along it

[6] = target: T5, tDGC (GGDEF domain of TM1788) (Thermotoga maritima, UniProt Q9X2A8, D177A); assay: gel filtration; assay type: binding; conditions: I-site; co-purified ligand
T5 construct: gene TM_1788; GGDEF domain, residues 82-248 of 248, N-terminal His6 tag, pET28b (salt-bridge mutants in pET22b), E. coli BL21(DE3); dimer with c-di-GMP, monomer without nucleotide
T5 sequence (Q9X2A8 entry or part of it D177A): as the sequence (Q9X2A8 entry or part of it R233A) above, with D96A, A152R counted along it

T1 sequence (Q9HX69 whole entry): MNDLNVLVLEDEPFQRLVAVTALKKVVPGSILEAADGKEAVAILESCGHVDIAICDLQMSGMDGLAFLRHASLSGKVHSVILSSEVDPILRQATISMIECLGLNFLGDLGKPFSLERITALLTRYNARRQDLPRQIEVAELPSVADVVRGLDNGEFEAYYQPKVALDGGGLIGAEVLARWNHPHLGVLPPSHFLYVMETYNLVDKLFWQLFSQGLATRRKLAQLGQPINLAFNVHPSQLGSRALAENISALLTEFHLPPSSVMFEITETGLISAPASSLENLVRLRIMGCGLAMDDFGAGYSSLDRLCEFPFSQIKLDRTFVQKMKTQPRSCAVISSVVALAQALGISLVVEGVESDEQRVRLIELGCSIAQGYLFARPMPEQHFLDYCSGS

In the case of `Nc1nc2c(ncn2[C@@H]2O[C@@H]3COP(=O)(O)O[C@H]4[C@@H](O)[C@H](n5cnc6c(=O)[nH]c(N)nc65)O[C@@H]4COP(=O)(O)O[C@H]3[C@H]2O)c(=O)[nH]1` [c-di-GMP], the “hydrolysis of tDGC-bound c-di-GMP to pGpG, gel filtration and mass spectrometry” value [1] is reported as “Following incubation of the wild type tDGC bound to c-di-GMP with RocR”, the “gel filtration” value [2] is reported as “The three mutants eluted as dimers in gel filtration, indicating that c-di-GMP is bound” and the structure [3] is reported as “The wild type tDGC protein co-purifies with c-di-GMP and co-crystallizes without any extraneous addition of ligand”. The “Tm (c-di-GMP-bound dimer; nucleotide-free monomer 85.5)” value [4] was 85.0 °C, the “gel filtration” value [5] was “The three mutants eluted as dimers in gel filtration, indicating that c-di-GMP is bound” and the “gel filtration” value [6] was “The three mutants eluted as dimers in gel filtration, indicating that c-di-GMP is bound”.

Source: article PMC4215984, “Structure of a Diguanylate Cyclase from Thermotoga maritima: Insights into Activation, Feedback Inhibition and Thermostability” (PLoS ONE, 2014)
